Legend:
[1] = system: MRE11 recruitment at the Cas9 target site (VEGFA site 3 on-target site; HEK293T, K562); assay: MRE11 ChIP-qPCR at Cas9 target sites after exposure to DNA repair inhibitors; type: cell-based, human; conditions: for MRE11 recruitment at the target site (ChIP-qPCR): Cas9 with gRNA targeting VEGFA site 3, HEK293T, 12 hours, 1 μM KU-60648, 20 µM Nu7026, 10 μM Ku-55933, 1 μM Scr7, 10 μM Olaparib
Excerpt: (§1) The supernatant was decanted.

[2] = system: MRE11 at Cas9 on- and off-target sites in K562 cells; assay: MRE11 ChIP-seq with BLENDER off-target detection (DISCOVER-Seq+) in K562 cells; type: cell-based, human
Excerpt: as §1

[3] = system: MRE11 at Cas9 TRA target sites in primary human T-cells; assay: DISCOVER-Seq+ in primary human T-cells with Cas9 targeting TRA (CAR knock-in); type: cell-based
Excerpt: as §1

[4] = system: MRE11 at Cas9 PCSK9 target sites in mouse liver; assay: DISCOVER-Seq+ in liver of mice given adenovirus Cas9/gRNA targeting PCSK9; type: in vivo, mouse (C57BL/6J)
Experimental: For in vivo gene delivery, 8-10 week old mice were anesthetized with 2.5% isofluorane/oxygen mixture. Mice received a single retro-orbital injection of 1×10^9 infectious adenoviral particles (Ad-Cas9-U6-mPCSK9-sgRNA) in 100 μL sterile saline. Immediately following, mice received intraperitoneal delivery of KU-60648 dosed at 25 mg/kg (or vehicle only) in 100 μL of citrate buffer, or 100 μL of citrate buffer vehicle. Mice received a dose of KU-60648 or vehicle every 12 hrs via intraperitoneal injection.
At the experimental endpoint of 12 h, mice were anesthetized with isofluorane and euthanized via cervical dislocation. Liver tissue was harvested, washed 3× in 2 mL PBS with 1× protease inhibitor (Halt™ Protease Inhibitor Cocktail, Thermo), then disrupted the tissue in 1 mL PBS with 1× protease inhibitor using a loose-fitting Dounce homogenizer. For MRE11 ChIP-seq, homogenized tissue was placed on ice and used immediately.
as §1

[5] = previous evaluation, ref [21]; cited from earlier work
Cas9 editing of ACTB = assay: Sequencing of insertion-deletion mutations (indels) after Cas9 targeting ACTB; type: cell-based; conditions: 48 hours after Cas9 editing; especially +1 insertions reduced in favor of larger -3 deletions
Experimental: Genomic DNA was extracted using the DNeasy Blood & Tissue Kit (Qiagen 69504) following manufacturer instructions. Approximately 1 million cells were used from cell lines and iPSCs. Approximately 10-20 μL of mouse liver cell suspension was used out of 1.5 mL total, and the genome extraction protocol included the Buffer ATL step since this sample is tissue.
Genomic DNA samples were amplified with PCR using Q5 Hot Start High-Fidelity 2X Master Mix (New England BioLabs M0494). For example, the primer set for amplifying around the FANCF site 2 on-target site is NGS_FANCFs2_ON_F and NGS_FANCFs2_ON_R. After amplicon PCR, cleanup was performed using 1.4×AMPure XP (Beckman Coulter A63881) following the manufacturer's instructions. Dual-indexing PCR was performed using KAPA HiFi HotStart ReadyMix (Roche 07958935001) and PCR cleanup was performed using 1×AMPure XP. Samples were quantified using QuBit (Thermo Fisher Scientific), pooled, diluted, and loaded onto a MiSeq (Illumina). […]
Sequencing reads were either demultiplexed automatically using MiSeq Reporter (Illumina) or with a custom Python script to individual FASTQ files. For indel calling, sequencing reads were scanned for exact matches to two 20-bp sequences that flank +/−20 bp from the ends of the target sequence. If no exact matches were found, the read was excluded from analysis. […]

[6] = system: 53BP1 and BRCA1 foci in U2OS cells stably expressing Cas9-EGFP; assay: Super-resolution STED microscopy of 53BP1 and BRCA1 repair foci after Cas9-induced DNA breaks; type: cell-based
Experimental: U2OS cells stably expressing Cas9-EGFP cells were seeded onto 35-mm, glass bottom dishes and transfected with mtgRNAs for 12-24 hrs. Cleavage was activated by UV light for 1 minute. To fix cells, 4% of pre-warmed paraformaldehyde in 1×PBS was used for 10 min. After rinsing 3 times with 1×PBS, cell membrane permeabilization was done with Triton-X used for 10 min. Then, cells 2% w/v BSA in 1×PBS was used for blocking for 1 hr and at room temperature. The primary antibodies, mouse anti-BRCA1 (D-9 sc-6954 Santa Cruz) and anti-53bpl (Abcam, ab172580), were diluted (1:500) in 1×PBS and directly added into the imaging dish. After 1 hr incubation, the primary antibody was removed, and the sample was washed with 1×PBS three times. The samples were then incubated for 30 minutes with the secondary antibodies Alexa-594 and Atto-647N diluted (1:1000) in 1×PBS. Finally, the sample was rinsed three times and mounted with Prolong Diamond mounting media (Thermo Fisher Scientific) overnight.
All STED images were obtained using a home-built two-color STED microscope (Han and Ha, 2015: Ma and Ha, 2019). In short, a femtosecond laser beam with a repetition rate of 80 MHz from a Ti: Sapphire laser head (Mai Tai HP, Spectra-Physics) is split into two parts: one part produces an excitation beam coupled into a photonic crystal fiber (Newport) for wide-spectrum light generation. […]

O=c1cc(N2CCOCC2)oc2c1ccc1ccccc12 [Nu7026, 2-(morpholin-4-yl)benzo (h) chromen-4-one]
MRE11 recruitment at the target site (ChIP-qPCR) [1]: significantly increased MRE11 recruitment

CCN1CCN(CC(=O)Nc2ccc(-c3cccc4c(=O)cc(N5CCOCC5)oc34)c3sc4ccccc4c23)CC1 [Ku-60648, 2-(4-ethylpiperazin-1-yl)-N-[4-(2-morpholin-4-yl-4-oxochromen-8-yl)dibenzothiophen-1-yl]acetamide]
MRE11 ChIP-seq enrichment at all discovered on- and off-target sites ([2]; K562, 12 hours after Cas9 delivery, FANCF site 2 or VEGFA site 2 gRNA, p<1E-3): significantly increased MRE11 ChIP-seq enrichment
fold increase in discovered Cas9 target sites versus without DNA-PKcs inhibition ([2]; VEGFA site 2 gRNA, K562): over 5 fold
total Cas9 target sites discovered ([2]; VEGFA site 2 gRNA, K562, with DNA-PKcs inhibition (36 sites without)): 181
off-target sites identified genome-wide ([3]; Cas9 targeting TRA, 12 hours (4 with DISCOVER-Seq)): 20
MRE11 enrichment at all discovered sites ([3]; Cas9 targeting TRA, versus DISCOVER-Seq without drug): significantly greater MRE11 enrichment
MRE11 enrichment in samples without Cas9 (negative control) ([3]; samples without Cas9): did not exhibit any change in enrichment
average number of target sites identified across 5 biological replicates ([4]; 25 mg/kg b.i.d., mouse liver (18 sites with vehicle), p<0.05): 27
target sites identified, sequencing reads pooled across all 5 replicates ([4]; 25 mg/kg b.i.d., mouse liver (51 with vehicle)): 101
MRE11 ChIP-seq signal in liver ([4]; 25 mg/kg peritoneal b.i.d., versus without DNA-PKcs inhibition, p<1E-4): significantly increased MRE11 ChIP-seq signal
penetration into tissue [5]: strongly penetrations into tissue including tumors
pharmacokinetics [5]: good pharmacokinetics
MRE11 recruitment at the target site (ChIP-qPCR) [1]: significantly increased MRE11 recruitment
estimated RPM enrichment normalized to the no drug sample (MRE11 ChIP-qPCR) ([1]; VEGFA site 2 (4 h, 12 h, 24 h) and HEK site 4 in HEK293T, FANCF site 2 in K562, versus without inhibitor, p=0.0001, n=14): significantly higher
indel editing after Cas9 targeting ACTB (Cas9 editing of ACTB): reduction in editing
53BP1 foci relative to BRCA1 ([6]; Cas9 with multi-target gRNA targeting over 100 locations): reduction in 53BP1 foci relative to BRCA1
number of 53BP1 and BRCA1 foci in the absence of Cas9 (DNA damage by inhibitor alone) ([6]; without Cas9): did not change the number of 53BP1 and BRCA1 foci

O=c1cc(-c2cccc3c2Sc2ccccc2S3)oc(N2CCOCC2)c1 [Ku-55933]
MRE11 recruitment at the target site (ChIP-qPCR) [1]: did not exhibit a clear effect

O=c1[nH]c(=S)[nH]c(N=Cc2ccccc2)c1N=Cc1ccccc1 [Scr7]
MRE11 recruitment at the target site (ChIP-qPCR) [1]: suppressed MRE11 recruitment

O=C(c1cc(Cc2n[nH]c(=O)c3ccccc23)ccc1F)N1CCN(C(=O)C2CC2)CC1 [Olaparib]
MRE11 recruitment at the target site (ChIP-qPCR) [1]: did not exhibit a clear effect
